Data published in patent US20040121316A1 (priority 2002, published 2004).
pEC50, pIC50, pKi: −log10 of the molar value. Read-outs that look alike come from different tables or passages of the source. Peptide text beside a SMILES is read from it. * marks the point of attachment. MeOSuc = COC(=O)CCC(=O)*; CH2Cl = ClC*

Columns and labels:
[1] = test system: recombinant HIV-1 10I 48V 54V 82A; assay: microbe, parasite or virus in culture; format: cell-based; conditions: for EC50: Human immunodeficiency virus 1, MT4, read-out: Cell-based assay (MT-4) EC50/nM 48V 54V 82A
WT HIV-1 = assay: microbe, parasite or virus in culture; format: cell-based; conditions: for EC50: Human immunodeficiency virus 1, MT4, read-out: Cell-based assay (MT-4) EC50/nM WT; for pEC50: XTT-based cytopathic assay, read-out: EC50 WT HIV-1
[2] = test system: recombinant HIV-1 30N 50S 82I 88D; assay: microbe, parasite or virus in culture; format: cell-based; conditions: for EC50: Human immunodeficiency virus 1, MT4, read-out: Cell-based assay (MT-4) EC50/nM 30N 82I 88D
HIV-1 protease 84V90M = target: T1, HIV-1 protease 84V90M (Human immunodeficiency virus type 1 group M subtype B, UniProt P04585, I572V/L578M); assay: Enzymatic assay, IC50 against 84V90M mutant protease; format: biochemical
T1 construct: synthetic hexapeptide substrate cleavage by HIV-1 protease

[3] = test system: recombinant HIV-1 10I 84V 71V 73S 90M; assay: microbe, parasite or virus in culture; format: cell-based; conditions: for EC50: Human immunodeficiency virus 1, MT4, read-out: Cell-based assay (MT-4) EC50/nM 84V 90M
[4] = target: human leukocyte elastase (huLE) (Homo sapiens, UniProt P08246); assay: biochemical; conditions: IC50 (μM) huLE
Chain of human leukocyte elastase (huLE) (P08246 30-267): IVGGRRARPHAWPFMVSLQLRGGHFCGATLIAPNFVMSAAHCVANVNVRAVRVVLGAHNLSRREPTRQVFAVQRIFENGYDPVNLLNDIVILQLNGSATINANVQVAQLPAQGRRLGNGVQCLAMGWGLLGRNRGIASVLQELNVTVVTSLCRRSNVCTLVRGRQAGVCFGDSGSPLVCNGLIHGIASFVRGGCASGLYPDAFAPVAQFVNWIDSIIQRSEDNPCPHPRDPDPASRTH

[5] = target: porcine liver carboxylesterase (PLCE) (Sus scrofa, UniProt Q29550); format: biochemical; conditions: for IC50: read-out: IC50 (μM) PLCE
Chain of porcine liver carboxylesterase (PLCE) (Q29550 whole entry): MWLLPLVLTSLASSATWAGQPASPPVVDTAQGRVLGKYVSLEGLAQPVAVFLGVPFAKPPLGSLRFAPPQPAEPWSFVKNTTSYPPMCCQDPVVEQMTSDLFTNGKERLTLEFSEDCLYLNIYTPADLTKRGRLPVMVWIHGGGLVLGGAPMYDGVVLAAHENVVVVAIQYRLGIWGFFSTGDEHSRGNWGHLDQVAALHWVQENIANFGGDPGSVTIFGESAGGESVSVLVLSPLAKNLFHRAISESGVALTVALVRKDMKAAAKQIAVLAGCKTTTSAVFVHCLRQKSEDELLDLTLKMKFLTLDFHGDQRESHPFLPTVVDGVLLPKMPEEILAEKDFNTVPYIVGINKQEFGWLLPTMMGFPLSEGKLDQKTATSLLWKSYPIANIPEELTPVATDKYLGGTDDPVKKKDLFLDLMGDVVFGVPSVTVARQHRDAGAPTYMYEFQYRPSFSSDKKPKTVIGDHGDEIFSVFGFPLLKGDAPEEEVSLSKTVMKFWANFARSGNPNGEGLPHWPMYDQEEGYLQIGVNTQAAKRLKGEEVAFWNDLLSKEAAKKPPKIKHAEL

GS-7340 Ester Hydrolase = GS-7340 Ester Hydrolase (Homo sapiens, UniProt P10619); format: biochemical
Chain of GS-7340 Ester Hydrolase (P10619 29-480): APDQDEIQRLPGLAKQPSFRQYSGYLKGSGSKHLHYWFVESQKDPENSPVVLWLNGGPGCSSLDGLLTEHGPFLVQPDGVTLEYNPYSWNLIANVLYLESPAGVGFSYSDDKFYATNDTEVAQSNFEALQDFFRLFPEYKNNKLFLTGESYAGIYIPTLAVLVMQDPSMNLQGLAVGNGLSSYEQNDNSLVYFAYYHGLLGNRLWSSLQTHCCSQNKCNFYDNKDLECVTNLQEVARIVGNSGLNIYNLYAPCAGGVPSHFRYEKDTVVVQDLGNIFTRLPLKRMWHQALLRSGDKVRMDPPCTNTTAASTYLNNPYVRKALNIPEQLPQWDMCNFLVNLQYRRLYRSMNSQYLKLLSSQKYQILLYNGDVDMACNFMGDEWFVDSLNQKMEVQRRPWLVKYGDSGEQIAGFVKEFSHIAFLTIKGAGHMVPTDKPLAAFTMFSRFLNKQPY

MT-2 cells [6] = test system: MT-2 cells
[7] = test system: recombinant HIV-1 strains with resistance mutations in the protease gene; assay: Cross-Resistance Profile Assay, whole panel; format: cell-based
[8] = test system: PBMC in human whole blood
MT-2 cells [9] = test system: MT-2 cells; remark: listed apart in the source
[10] = not given; remark: listed apart in the source
[11] = not given; remark: listed apart in the source
[12] = test system: MT-2 cells, stimulated and quiescent PBMC
[13] = test system: recombinant HIV-1 10R 46I 82T 84V; assay: Cross-Resistance Profile Assay; format: cell-based; conditions: protease mutations 10R 46I 82T 84V
[14] = test system: recombinant HIV-1 46I 47V 50V; assay: microbe, parasite or virus in culture; format: cell-based; conditions: for Fold Change in EC50 Relative to WT HIV-1: protease mutations 46I 47V 50V; for EC50: Human immunodeficiency virus 1, MT4, read-out: Cell-based assay (MT-4) EC50/nM 47I 50V
[15] = test system: recombinant HIV-1 10I 48V 71V 82A 90M; assay: microbe, parasite or virus in culture; format: cell-based; conditions: for Fold Change in EC50 Relative to WT HIV-1: protease mutations 10I 48V 71V 82A 90M; for EC50: Human immunodeficiency virus 1, MT4, read-out: Cell-based assay (MT-4) EC50/nM 48V 82A 90M
[16] = test system: recombinant HIV-1 46I 84A; assay: Cross-Resistance Profile Assay; format: cell-based; conditions: protease mutations 46I 84A
[17] = target: T2, recombinant HIV-1 protease (Human immunodeficiency virus type 1 group M subtype B, UniProt P04585); assay: biochemical; conditions: Ki
T2 construct: Enzyme: recombinant HIV-1 protease expressed in E.Coli; purchased Bachem California, Inc. H-9040; host or cells: E. coli

[18] = test system: wild-type HIV-1 strain IIIB; assay: microbe, parasite or virus in culture; format: cell-based; conditions: Human immunodeficiency virus 1, IIIB
[19] = test system: recombinant HIV-1 48V 54V 71V 82S; assay: microbe, parasite or virus in culture; format: cell-based; conditions: for Fold Change in EC50 Relative to WT HIV-1: protease mutations 48V 54V 71V 82S; for EC50: Human immunodeficiency virus 1, MT4, read-out: Cell-based assay (MT-4) EC50/nM 48V 54V 82S
mutant HIV-1 I84V/L90M = assay: Resistance Evaluation, I84V/L90M fold change; format: cell-based; conditions: EC50 of mutant I84V/L90M relative to wild type; class symbols
[20] = test system: recombinant HIV-1 10F 46I 71V 82T 90M; assay: Cross-Resistance Profile Assay; format: cell-based; conditions: protease mutations 10F 46I 71V 82T 90M
[21] = test system: recombinant HIV-1 54V 71V 82S; assay: Cross-Resistance Profile Assay; format: cell-based; conditions: protease mutations 54V 71V 82S
[22] = resistance = 5-fold and higher change in EC50 of the mutant relative to wild-type, 11 mutant viruses

Compound: O=C1N(Cc2ccccc2)C(Cc2ccccc2)C(O)C(O)C(Cc2ccc(OCP(=O)(OCc3ccccc3)OCc3ccccc3)cc2)N1Cc1ccccc1 (centres unmarked)
- EC50 [1]: > 6000 nM
- EC50 (WT HIV-1): 1770 nM
- EC50 [2]: 3140 nM
- pIC50 (HIV-1 protease 84V90M): 6.80
- EC50 [3]: > 6000 nM

Compound: O=c1oc(Cl)c(Cl)c2ccccc12 [3,4-dichloroisocoumarin]
- IC50 [4]: 3 µM
- pIC50 [5]: 3.60
- IC50 [5]: 250 µM
- Relative Activity (%) (GS-7340 Ester Hydrolase; 1 µM): 100%
- Relative Activity (%) (GS-7340 Ester Hydrolase; 10 µM): 25%
- Relative Activity (%) (GS-7340 Ester Hydrolase; 100 µM): 5%
- Relative Activity (%) (GS-7340 Ester Hydrolase; 1000 µM): <2%

Compound: COc1ccc(S(=O)(=O)N(CC(C)C)C[C@@H](O)[C@H](Cc2ccc(P(=O)(O)O)cc2)NC(=O)O[C@H]2CO[C@H]3OCC[C@H]32)cc1 [Compound 27]
- CC50 (MT-2 cells [6]): > 100 µM

Compound: CCOP(=O)(OCC)c1ccc(CC(NC(=O)OC2COC3OCCC23)C(O)CN(CC(C)C)S(=O)(=O)c2ccc(OC)cc2)cc1 (centres unmarked) [Compound 28]
- CC50 (MT-2 cells [6]): 70 µM

Compound: CCCCOC(=O)C(C)NP(=O)(COc1ccc(CC(NC(=O)OC2COC3OCCC23)C(O)CN(CC(C)C)S(=O)(=O)c2ccc(OC)cc2)cc1)NC(C)C(=O)OCCCC (centres unmarked) [GS-16503]
- Total No. of Resistant Viruses [7, 22]: 0
- pEC50 (WT HIV-1): 7.80
- Cell-Associated PI, Prodrug (quiescent PBMC): 0 pmol/mln cells
- composition of metabolites in PBMC (quiescent PBMC): equimolar mixture of metabolite X and GS-8373
- Intracellular Acid Metabolite Concentration [8]: 279 ± 47 µM
- Intracellular Concentration, Acid Metabolite [8]: 279 ± 47 µM
- Intracellular Concentration, Prodrug [8]: 61 ± 40 µM
- Intracellular Prodrug [8]: 61 ± 40 µM
- Intracellular Prodrug and Metabolites Concentration, Total [8]: 340 ± 35 µM
- Intracellular Prodrug and Metabolites Total [8]: 340 ± 35 µM
- Major Intracellular Metabolites [8]: X, GS-8373
- Metabolism (conversion to acid metabolites), dependence on concentration (MT-2 cells [9]): concentration-dependent
- increase in conversion to acid metabolites at 1 μM vs. 10 μM (MT-2 cells [9]): 3 fold
- Dog Plasma T1/2: 6.13 h
- Dog Plasma T1/2, min: 6.13 h
- Human Serum T1/2 [10]: >>400 min
- Human Serum T1/2, min [10]: >>400 min
- PBMC Extract T1/2 [11]: 0.033 h
- PBMC Extract T1/2, min [11]: 0.033 h
- intracellular metabolites formed [12]: Metabolite X and GS-8373

Compound: CCOC(=O)C(C)NP(=O)(COc1ccc(CC(NC(=O)OC2COC3OCCC23)C(O)CN(CC(C)C)S(=O)(=O)c2ccc(OC)cc2)cc1)Oc1ccccc1 (centres unmarked) [GS-16571]
- Total No. of Resistant Viruses [7, 22]: 0
- pEC50 (WT HIV-1): 7.66
- Intracellular Acid Metabolite Concentration [8]: 319 ± 112 µM
- Intracellular Concentration, Acid Metabolite [8]: 319 ± 112 µM
- Intracellular Concentration, Prodrug [8]: 137 ± 62 µM
- Intracellular Prodrug [8]: 137 ± 62 µM
- Intracellular Prodrug and Metabolites Concentration, Total [8]: 432 ± 208 µM
- Intracellular Prodrug and Metabolites Total [8]: 432 ± 208 µM
- Major Intracellular Metabolites [8]: X, GS-8373
- Dog Plasma T1/2: 2.1 h
- Dog Plasma T1/2, min: 2.1 h
- Human Serum T1/2 [10]: 110 min
- Human Serum T1/2, min [10]: 110 min
- PBMC Extract T1/2 [11]: 0.817 h
- PBMC Extract T1/2, min [11]: 0.817 h
- intracellular metabolites formed [12]: Metabolite X and GS-8373

Compound: CCOC(=O)C(C)OP(=O)(COc1ccc(C[C@H](NC(=O)O[C@H]2CO[C@H]3OCC[C@H]32)[C@H](O)CN(CC(C)C)S(=O)(=O)c2ccc(OC)cc2)cc1)Oc1ccccc1 (some centres unmarked) [GS-17394]
- Cell-Associated PI, Prodrug (quiescent PBMC): 0 pmol/mln cells
- composition of metabolites in PBMC (quiescent PBMC): only metabolite LX
- Intracellular Acid Metabolite Concentration [8]: 629 ± 303 µM
- Intracellular Concentration, Acid Metabolite [8]: 629 ± 303 µM
- Intracellular Concentration, Prodrug [8]: 69 ± 85 µM
- Intracellular Prodrug [8]: 69 ± 85 µM
- Intracellular Prodrug and Metabolites Concentration, Total [8]: 698 ± 301 µM
- Intracellular Prodrug and Metabolites Total [8]: 698 ± 301 µM
- Metabolism (conversion to acid metabolites), dependence on concentration (MT-2 cells [9]): independent
- Dog Plasma T1/2: 2.4 h
- Dog Plasma T1/2, min: 2.4 h
- Human Serum T1/2 [10]: 49 min
- Human Serum T1/2, min [10]: 49 min
- PBMC Extract T1/2 [11]: 0.25 h
- PBMC Extract T1/2, min [11]: 0.25 h
- intracellular metabolites formed [12]: Metabolite LX

Compound: Cc1cccc(C)c1OCC(=O)N[C@@H](Cc1ccccc1)[C@@H](O)C[C@H](Cc1ccccc1)NC(=O)[C@H](C(C)C)N1CCCNC1=O [Lopinavir, reference compound]
- Fold Change in EC50 Relative to WT HIV-1 [13]: 11 fold
- Fold Change in EC50 Relative to WT HIV-1 [14]: 19 fold
- Total No. of Resistant Viruses ([7]; {}): 6
- Fold Change in EC50 Relative to WT HIV-1 [15]: 4.5 fold
- Fold Change in EC50 Relative to WT HIV-1 [16]: 9 fold
- pKi [17]: 10.00 to 11.00
- pEC50 [18]: > 7.30
- Fold Change in EC50 Relative to WT HIV-1 ([3]; protease mutations 10I 84V 71V 73S 90M): 11 fold
- Fold Change in EC50 Relative to WT HIV-1 [19]: 60 fold
- I84V/L90M fold change (mutant HIV-1 I84V/L90M): ++ (>10 to ≦30)
- Fold Change in EC50 Relative to WT HIV-1 [20]: 7.5 fold

Compound: COC(=O)CCC(=O)N[C@@H](C)C(=O)N[C@@H](C)C(=O)N1CCC[C@H]1C(=O)N[C@@H](C)C(=O)CCl [MeOSuC-Ala-Ala-Pro-Ala-CMK] (MeOSuc-AAPA-CH2Cl)
- IC50 [5]: > 1000 µM

Compound: COC(=O)CCC(=O)N[C@@H](C)C(=O)N[C@@H](C)C(=O)N1CCC[C@H]1C(=O)N[C@H](C(=O)CCl)C(C)C [MeOSuc-Ala-Ala-Pro-Val-CMK] (MeOSuc-AAPV-CH2Cl)
- IC50 [5]: > 1000 µM

Compound: CCOP(=O)(COc1ccc(CC2C(O)C(O)C(Cc3ccc(OC)cc3)N(Cc3cccc(N)c3)C(=O)N2Cc2cccc(N)c2)cc1)OCC (centres unmarked) [OCH3/Ph-mNH2/OCH2PO3Et2]
- EC50 [1]: 202 nM
- EC50 [14]: 36 nM
- EC50 (WT HIV-1): 63 nM
- EC50 [15]: 102 nM
- EC50 [2]: 18 nM
- pIC50 (HIV-1 protease 84V90M): 7.25
- EC50 [3]: 535 nM
- EC50 [19]: 117 nM

Compound: CCOP(=O)(CCNC(=O)Oc1ccc(CC2C(O)C(O)C(Cc3ccc(OC)cc3)N(Cc3ccc(O)cc3)C(=O)N2Cc2ccc(O)cc2)cc1)OCC (centres unmarked) [OCH3/Ph-pOH/OCONH(CH2)2PO3Et2]
- EC50 [1]: 74 nM
- EC50 [14]: 223 nM
- EC50 (WT HIV-1): 33 nM
- EC50 [15]: 55 nM
- EC50 [2]: 31 nM
- pIC50 (HIV-1 protease 84V90M): 7.31
- EC50 [3]: 495 nM
- EC50 [19]: 51 nM

Compound: CCC[C@@]1(CCc2ccccc2)CC(O)=C([C@H](CC)c2cccc(NS(=O)(=O)c3ccc(C(F)(F)F)cn3)c2)C(=O)O1 [Tipranavir, reference compound]
- Fold Change in EC50 Relative to WT HIV-1 [13]: 5 fold
- Fold Change in EC50 Relative to WT HIV-1 ([1]; protease mutations 10I 48V 54V 82A): 0.4 fold
- Fold Change in EC50 Relative to WT HIV-1 [14]: 0.5 fold
- Fold Change in EC50 Relative to WT HIV-1 [21]: 3.5 fold
- Total No. of Resistant Viruses ([7]; {}): 1
- Fold Change in EC50 Relative to WT HIV-1 [15]: 0.3 fold
- Fold Change in EC50 Relative to WT HIV-1 ([2]; protease mutations 30N 50S 82I 88D): 0.5 fold
- Fold Change in EC50 Relative to WT HIV-1 [16]: 1 fold
- pEC50 [18]: 6.30 to 7.30
- Fold Change in EC50 Relative to WT HIV-1 [19]: 2 fold
- I84V/L90M fold change (mutant HIV-1 I84V/L90M): + (>3 to ≦10)
- Fold Change in EC50 Relative to WT HIV-1 [20]: 3 fold
